Laboratory results reported in ChEMBL document CHEMBL1201862, “PubChem BioAssay data set” (2004).
The source made the active and inactive calls. Where a SMILES comes first, the peptide text is derived from it. Square brackets hold non-standard residues; d marks the D form. Peptide text beside a SMILES is read from it.

Tests used:
[1] = target: T1, Replicative DNA helicase DnaB (Mycobacterium tuberculosis, UniProt P9WMR3); experiment: DnaB intein splicing inhibitors, dose response, biochemical, cell-free fluorescence (AID 449749); format: functional
T1 sequence (P9WMR3 whole entry): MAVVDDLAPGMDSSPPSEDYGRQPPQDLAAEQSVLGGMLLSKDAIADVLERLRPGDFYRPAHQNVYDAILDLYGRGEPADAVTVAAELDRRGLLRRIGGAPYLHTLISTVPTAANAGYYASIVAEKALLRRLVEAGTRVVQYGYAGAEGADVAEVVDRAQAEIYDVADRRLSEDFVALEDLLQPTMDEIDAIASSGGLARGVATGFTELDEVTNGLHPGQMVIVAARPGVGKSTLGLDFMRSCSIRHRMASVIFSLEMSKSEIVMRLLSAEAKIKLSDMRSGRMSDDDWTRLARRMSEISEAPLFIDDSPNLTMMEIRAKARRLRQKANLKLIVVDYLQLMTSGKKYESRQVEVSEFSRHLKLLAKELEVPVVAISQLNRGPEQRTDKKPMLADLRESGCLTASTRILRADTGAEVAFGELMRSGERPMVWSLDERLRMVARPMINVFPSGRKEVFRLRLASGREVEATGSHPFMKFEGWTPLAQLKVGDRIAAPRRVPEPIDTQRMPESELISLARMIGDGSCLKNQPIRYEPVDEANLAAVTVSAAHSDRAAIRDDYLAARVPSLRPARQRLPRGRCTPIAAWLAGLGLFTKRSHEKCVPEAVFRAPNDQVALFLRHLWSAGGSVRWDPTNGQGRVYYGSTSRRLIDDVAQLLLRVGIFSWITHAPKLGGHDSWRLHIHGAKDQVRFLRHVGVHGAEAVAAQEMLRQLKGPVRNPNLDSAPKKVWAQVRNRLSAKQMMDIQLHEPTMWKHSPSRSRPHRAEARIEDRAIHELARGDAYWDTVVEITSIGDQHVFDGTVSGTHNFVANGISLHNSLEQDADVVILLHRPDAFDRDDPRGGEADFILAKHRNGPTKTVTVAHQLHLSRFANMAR

[2] = target: T2, Short transient receptor potential channel 4 (Mus musculus, UniProt Q9QUQ5); experiment: mouse TRPC4 channel inhibitors, dose response, cell-based, HEK293 TRPC4/mu-opioid, Fluo-4 calcium (AID 434942); format: functional;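 also: potency of inhibitors blocking the TRPC4 calcium response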
T2 sequence (Q9QUQ5 whole entry): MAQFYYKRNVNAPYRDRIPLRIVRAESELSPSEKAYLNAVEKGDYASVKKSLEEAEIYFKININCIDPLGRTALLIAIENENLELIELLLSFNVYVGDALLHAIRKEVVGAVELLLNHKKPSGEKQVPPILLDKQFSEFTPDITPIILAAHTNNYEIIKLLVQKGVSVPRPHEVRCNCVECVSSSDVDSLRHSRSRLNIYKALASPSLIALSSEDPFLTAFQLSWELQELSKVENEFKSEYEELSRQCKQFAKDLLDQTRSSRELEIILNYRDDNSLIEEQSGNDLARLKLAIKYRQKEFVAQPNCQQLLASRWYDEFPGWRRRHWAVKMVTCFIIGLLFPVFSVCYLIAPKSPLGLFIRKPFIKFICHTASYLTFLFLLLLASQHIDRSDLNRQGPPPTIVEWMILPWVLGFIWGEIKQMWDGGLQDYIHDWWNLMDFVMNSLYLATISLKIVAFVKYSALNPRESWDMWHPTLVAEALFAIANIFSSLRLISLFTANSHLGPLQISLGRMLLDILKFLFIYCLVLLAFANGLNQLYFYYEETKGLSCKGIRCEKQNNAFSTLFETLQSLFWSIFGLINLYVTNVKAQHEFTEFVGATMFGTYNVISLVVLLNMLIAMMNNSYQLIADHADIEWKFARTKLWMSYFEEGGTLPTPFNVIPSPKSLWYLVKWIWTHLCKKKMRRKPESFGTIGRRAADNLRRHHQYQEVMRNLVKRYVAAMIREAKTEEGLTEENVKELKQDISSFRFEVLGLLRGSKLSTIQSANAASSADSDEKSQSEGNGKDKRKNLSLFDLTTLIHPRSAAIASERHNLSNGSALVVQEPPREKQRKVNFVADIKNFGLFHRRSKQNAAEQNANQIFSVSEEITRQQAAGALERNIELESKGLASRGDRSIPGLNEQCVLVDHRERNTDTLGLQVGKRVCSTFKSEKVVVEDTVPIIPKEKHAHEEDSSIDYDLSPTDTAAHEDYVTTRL

P388/ADR = experiment: cells; format: functional; conditions: Mus musculus
SN12K1 = experiment: cells; format: functional; conditions: Homo sapiens
P388 = experiment: cells; format: functional; conditions: Mus musculus
[3] = target: T3, RNA-binding protein pos-1 (Caenorhabditis elegans, UniProt G5EF15); experiment: inhibitors of POS-1/mex-3 RNA binding, dose response, biochemical, fluorescence polarization (AID 1964);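 also: purified POS-1 fused to maltose binding protein made in E. coli; potency of compounds blocking POS-1 binding to fluorescent RNA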
T3 sequence (G5EF15 whole entry): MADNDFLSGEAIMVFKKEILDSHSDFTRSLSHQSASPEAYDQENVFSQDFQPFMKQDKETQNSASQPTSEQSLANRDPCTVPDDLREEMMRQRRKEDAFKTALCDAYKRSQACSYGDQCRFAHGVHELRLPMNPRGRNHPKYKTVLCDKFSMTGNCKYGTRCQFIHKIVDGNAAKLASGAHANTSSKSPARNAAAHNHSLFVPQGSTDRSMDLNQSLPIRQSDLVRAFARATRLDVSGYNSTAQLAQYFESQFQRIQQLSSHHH

[4] = target: T4, Zinc finger protein mex-5 (Caenorhabditis elegans, UniProt Q9XUB2); experiment: MEX-5/TCR-2 RNA interaction inhibitors, dose response, biochemical, C. elegans, fluorescence polarization (AID 1960)
T4 sequence (Q9XUB2 whole entry): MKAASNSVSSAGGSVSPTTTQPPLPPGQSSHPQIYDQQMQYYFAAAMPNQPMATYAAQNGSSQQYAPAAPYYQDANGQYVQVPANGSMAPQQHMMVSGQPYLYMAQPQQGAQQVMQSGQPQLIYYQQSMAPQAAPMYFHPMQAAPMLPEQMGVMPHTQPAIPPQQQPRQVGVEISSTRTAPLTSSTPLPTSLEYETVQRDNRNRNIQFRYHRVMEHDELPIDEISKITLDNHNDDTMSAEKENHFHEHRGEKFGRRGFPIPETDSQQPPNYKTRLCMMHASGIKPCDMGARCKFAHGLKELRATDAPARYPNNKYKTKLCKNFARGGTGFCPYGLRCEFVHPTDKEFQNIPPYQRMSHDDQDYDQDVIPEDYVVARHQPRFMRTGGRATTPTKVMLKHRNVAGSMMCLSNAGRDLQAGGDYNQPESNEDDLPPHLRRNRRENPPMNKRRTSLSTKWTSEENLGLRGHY

Genome polyprotein = Genome polyprotein (dengue virus type 2, UniProt P29990); experiment: Dengue-2 NS5 methyltransferase inhibitors, primary screen, biochemical, confirmation dose response (AID 588689); format: functional
Genome polyprotein, sequence (P29990 2492-3391 limits assumed): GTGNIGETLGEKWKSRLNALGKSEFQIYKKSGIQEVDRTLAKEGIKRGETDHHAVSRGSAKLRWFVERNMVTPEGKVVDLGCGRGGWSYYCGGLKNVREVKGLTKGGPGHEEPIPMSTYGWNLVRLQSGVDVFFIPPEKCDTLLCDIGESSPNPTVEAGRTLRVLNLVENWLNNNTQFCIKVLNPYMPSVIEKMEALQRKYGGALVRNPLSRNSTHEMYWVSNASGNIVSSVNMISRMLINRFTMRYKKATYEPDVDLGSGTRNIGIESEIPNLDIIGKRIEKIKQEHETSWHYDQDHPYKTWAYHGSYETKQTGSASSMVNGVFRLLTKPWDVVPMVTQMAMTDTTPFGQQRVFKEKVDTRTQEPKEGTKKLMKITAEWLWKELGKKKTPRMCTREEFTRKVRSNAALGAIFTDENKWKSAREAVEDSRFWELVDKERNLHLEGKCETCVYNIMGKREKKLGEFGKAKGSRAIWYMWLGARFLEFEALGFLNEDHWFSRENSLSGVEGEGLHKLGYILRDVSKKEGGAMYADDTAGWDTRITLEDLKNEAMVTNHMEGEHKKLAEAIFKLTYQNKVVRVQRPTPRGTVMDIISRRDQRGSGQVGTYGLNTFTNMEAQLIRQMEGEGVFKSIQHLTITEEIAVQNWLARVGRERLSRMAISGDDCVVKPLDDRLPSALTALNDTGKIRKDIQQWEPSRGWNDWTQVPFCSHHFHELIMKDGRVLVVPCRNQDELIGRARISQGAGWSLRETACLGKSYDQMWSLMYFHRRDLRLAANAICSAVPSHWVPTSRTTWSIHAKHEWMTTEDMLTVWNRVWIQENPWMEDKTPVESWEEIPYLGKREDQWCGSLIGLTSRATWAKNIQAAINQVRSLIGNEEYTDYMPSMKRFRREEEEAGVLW

[5] = target: T5, Carboxy-terminal domain RNA polymerase II polypeptide A small phosphatase 1 (Homo sapiens, UniProt Q9GZU7); experiment: inhibitors of CTDSP1, concentration-response testing, biochemical assay, absorbance-based, actives from ultra-high-throughput screening (AID 540297); format: functional
T5 sequence (Q9GZU7 whole entry): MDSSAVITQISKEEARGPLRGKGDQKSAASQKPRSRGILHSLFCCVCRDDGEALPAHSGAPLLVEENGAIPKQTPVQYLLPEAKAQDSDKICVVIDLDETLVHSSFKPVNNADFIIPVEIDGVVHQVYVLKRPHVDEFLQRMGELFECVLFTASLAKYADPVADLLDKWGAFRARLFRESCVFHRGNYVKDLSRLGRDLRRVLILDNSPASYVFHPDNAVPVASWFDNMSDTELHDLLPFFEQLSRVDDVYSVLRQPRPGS

[6] = target: Induced myeloid leukemia cell differentiation protein Mcl-1 (Homo sapiens, UniProt Q07820); format: functional
Induced myeloid leukemia cell differentiation protein Mcl-1, sequence (Q07820 whole entry): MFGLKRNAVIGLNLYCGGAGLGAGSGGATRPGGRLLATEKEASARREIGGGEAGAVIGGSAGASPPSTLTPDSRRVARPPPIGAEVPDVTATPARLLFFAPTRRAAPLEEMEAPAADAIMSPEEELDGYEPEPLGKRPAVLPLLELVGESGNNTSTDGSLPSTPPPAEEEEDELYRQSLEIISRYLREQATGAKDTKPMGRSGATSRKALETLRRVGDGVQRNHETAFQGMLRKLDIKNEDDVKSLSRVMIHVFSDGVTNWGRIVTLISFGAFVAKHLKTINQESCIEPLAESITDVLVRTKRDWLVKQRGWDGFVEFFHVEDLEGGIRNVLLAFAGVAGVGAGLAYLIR

[7] = inhibitors of intracellular T. cruzi replication, confirmation, NIH3T3 host cells, beta-gal luminescence (AID 2044); format: functional, cell-based;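 also: intracellular parasites grown in NIH/3T3 mouse fibroblasts as host cells; luminescent beta-galactosidase reporter signal from transgenic T. cruzi replicating inside host cells; inhibitors lower the luminescence signal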
cells = format: functional
[8] = microbe, parasite or virus in culture; format: functional; conditions: Mycobacterium tuberculosis
[9] = cytotoxicity toward NIH3T3 fibroblasts, dose response, counter-screen, cell-based, ATP luminescence, mouse fibroblasts (AID 2010); format: functional;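 also: cells exposed to compound for about 90 hours before reading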
[10] = system: Streptococcus sp. 'group A'; experiment: growth inhibition of control SK(-) GAS strain, dose response, counter-screen for streptokinase expression inhibitor project, luminescence, kanamycin, BacTiterGlo, confirmation (AID 1900); format: functional, organism-based
Streptokinase A = target: T6, Streptokinase A (Streptococcus pyogenes serotype M1, UniProt P10520); experiment: S. pyogenes streptokinase expression inhibitors, potency, dose response, plasminogen activation absorbance, OD405 (AID 1914); format: functional, Streptococcus pyogenes M1 GAS;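 also: secreted streptokinase activity via plasminogen activation per viability signal from cell pellet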
T6 sequence (P10520 whole entry): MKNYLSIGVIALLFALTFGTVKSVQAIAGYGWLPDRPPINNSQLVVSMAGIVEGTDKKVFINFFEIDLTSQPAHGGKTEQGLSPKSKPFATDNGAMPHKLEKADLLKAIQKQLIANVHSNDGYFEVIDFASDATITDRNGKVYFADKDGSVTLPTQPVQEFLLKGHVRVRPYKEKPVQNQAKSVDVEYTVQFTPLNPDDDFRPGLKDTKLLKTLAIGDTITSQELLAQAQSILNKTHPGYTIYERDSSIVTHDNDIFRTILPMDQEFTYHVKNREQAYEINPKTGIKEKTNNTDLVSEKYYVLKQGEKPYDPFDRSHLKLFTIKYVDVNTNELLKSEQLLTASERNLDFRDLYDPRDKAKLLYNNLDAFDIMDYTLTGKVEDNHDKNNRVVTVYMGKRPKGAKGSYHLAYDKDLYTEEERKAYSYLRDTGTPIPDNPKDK

Streptococcus = experiment: Group A Streptococcus viability loss, dose response, counter-screen for streptokinase expression inhibitor project, luminescence, BacTiterGlo (AID 1915); format: functional, organism-based;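 also: potency for reduction of bacterial viability or growth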

N=C(Cc1cccc2ccccc12)NOC(=O)c1cccs1
AC50 [1]: 5.96 µM (active) | EC50 [2]: 0.596 µM (active)

O=C(NC/C=C/CO)c1ccccc1
GI50 (P388/ADR): > 100 µM (inactive) | GI50 (SN12K1): > 100 µM (inactive) | GI50 (P388): > 100 µM (inactive)

Cc1ccc(/C=C/C(=O)c2ccc(O)cc2)cc1
EC50 [2]: 3.35 µM (active)

COC(=O)Cn1cc(C=C2C(=O)NC(=O)NC2=O)c2ccccc21
EC50 [3]: > 300 µM (not active) | EC50 [4]: > 300 µM (not active) | IC50 (Genome polyprotein): 25.7 µM (active)

O=C(CCN1CCOCC1)C(=Cc1ccccc1)C(=O)CCN1CCOCC1
GI50 (P388/ADR): 0.255 µM (active) | GI50 (SN12K1): 2.32 µM (inactive) | GI50 (P388): 0.392 µM (active)

CCCCNC(=O)c1ccc2nc(-c3ccco3)c(-c3ccco3)nc2c1
IC50 [5]: 3.77 µM (active) | IC50 (Genome polyprotein): 80.4 µM (active) | IC50 [6]: 6.65 µM (active)

CC1NC(=O)CNC(=O)CNC(=O)C(Cc2ccc(O)cc2)NC(=O)C(C(C)C)NC(=O)C(C)NC1=O (stereo not drawn) (cyclo(GGAAVY); configuration not given here)
GI50 (P388/ADR): > 100 µM (inactive) | GI50 (SN12K1): > 100 µM (inactive) | GI50 (P388): > 100 µM (inactive)

CC(C)C[C@H](NC(=O)[C@H](CC(C)C)NC(=O)[C@@H](Cc1c[nH]c2ccccc12)NC(=O)[C@H](Cc1ccccc1)NC(=O)[C@@H](Cc1c[nH]c2ccccc12)NC(=O)[C@H](CCC(N)=O)NC(=O)[C@@H](CCC(N)=O)NC(=O)[C@@H]1CCCN1C(=O)[C@@H](CCCCN)NC(=O)[C@H]1CCCN1C(=O)[C@H](N)CCCN=C(N)N)C(N)=O (H-[dR][dP][dK]P[dQ]Q[dW]F[dW]LL-NH2)
GI50 (P388/ADR): > 100 µM (inactive) | GI50 (SN12K1): > 100 µM (inactive) | GI50 (P388): > 79.8 µM (inactive)

CC(C)OC(=O)CCCCCN1C(=O)CSC1=S
EC50 [7]: 4.77 µM (active) | IC50 (cells): 6.29 µM (active) | CC50 [8]: 31.3 µM (active) | EC50 [9]: 8.46 µM (active)

O=C(NC1CCCCC1)C(c1cccs1)N(CCCN1CCOCC1)C(=O)c1ccc(-c2ccccc2)[nH]1 (stereo not drawn)
CC50 [8]: > 40 µM (active)

CC(=O)N1CCN(c2ccccc2NC(=O)c2cccs2)CC1
EC50 [10]: > 150 µM (not active) | EC50 [2]: 1.68 µM (active) | EC50 (Streptokinase A): > 150 µM (not active) | EC50 (Streptococcus): > 150 µM (not active)

Cc1sc(C(C2C(=O)CC(C)(C)CC2=O)C2C(=O)CC(C)(C)CC2=O)cc1[N+](=O)[O-]
IC50 (Genome polyprotein): 29.4 µM (active)

CCCc1nc2ccccc2n1Cc1ccccc1OC
EC50 [2]: 6.68 µM (active)

CCOC(=O)C1(CCOC)CCN(C(C)CCc2ccc(OC)cc2)CC1 (stereo not drawn)
EC50 [2]: 4.22 µM (active)

COc1cc(C=C2C(=O)NC(=O)NC2=O)ccc1OS(=O)(=O)c1ccccc1[N+](=O)[O-]
IC50 (Genome polyprotein): 37.7 µM (active)

Cc1ccc(N(C(=O)c2snc(C(N)=O)c2N)C(C(=O)NCC2CCCO2)c2ccc(C)o2)c(C)c1 (stereo not drawn)
EC50 [2]: 1.68 µM (active)

Cn1cc(NC(=O)CCl)cn1
CC50 [8]: > 40 µM (active)

O=C(C1CCC1)N1CCN(S(=O)(=O)c2ccc(Br)cc2Cl)CC1
CC50 [8]: > 40 µM (active)

O=[N+]([O-])c1cccc(N(CC(O)CN2CCCC2)S(=O)(=O)c2ccccc2)c1 (stereo not drawn)
EC50 [2]: 10.6 µM (active)
